Data on 15 compounds can be found in ChEMBL document CHEMBL5465560, “Selectivity Literature for EUbOPEN Chemogenomic Library” (2024).

The target of test [1] is Tyrosine-protein kinase Lyn (Homo sapiens, UniProt P07948). In words: Selectivity interaction (KinomeScan (DiscoverX)) EUB0000595a LYN. Conditions: at 10 µM.
Test [2] has as its target Mitogen-activated protein kinase 7 (Homo sapiens) (UniProt Q13164). Put plainly: Selectivity interaction (ActivX KiNativ screen (ex vivo kinase selectivity in human PBMCs)) EUB0001619a MAPK7. The format is cell-based. The settings on record: PBMC, at 1 µM.
Test [3] concerns the target T1, Muscarinic acetylcholine receptor M1 (Homo sapiens) (UniProt P11229).
T1 sequence (whole entry): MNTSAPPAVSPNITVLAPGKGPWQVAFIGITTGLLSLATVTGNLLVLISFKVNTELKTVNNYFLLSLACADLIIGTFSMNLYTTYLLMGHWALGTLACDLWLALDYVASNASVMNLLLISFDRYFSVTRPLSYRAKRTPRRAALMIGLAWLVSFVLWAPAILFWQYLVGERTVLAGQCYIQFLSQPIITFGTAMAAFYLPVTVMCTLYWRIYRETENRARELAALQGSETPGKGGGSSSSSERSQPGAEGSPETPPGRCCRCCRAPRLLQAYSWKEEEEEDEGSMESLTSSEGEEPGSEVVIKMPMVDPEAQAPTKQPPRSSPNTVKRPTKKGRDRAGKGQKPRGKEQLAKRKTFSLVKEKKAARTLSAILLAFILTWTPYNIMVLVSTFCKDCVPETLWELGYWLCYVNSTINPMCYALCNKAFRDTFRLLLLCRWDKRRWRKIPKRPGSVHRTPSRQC
Put plainly: Selectivity interaction (Eurofins CEREP Diversity Profile (receptors and ion channels)) EUB0000279b CHRM1. Conditions: at 10 µM.

Test [4] addresses Mitogen-activated protein kinase kinase kinase kinase 1 (Homo sapiens) (UniProt Q92918). Put plainly: Selectivity interaction (KinomeScan (DiscoverX)) EUB0000607a MAP4K1. The settings on record: at 10 µM.
The target in test [5] is Ribosomal protein S6 kinase beta-1 (Homo sapiens, UniProt P23443). Put plainly: Selectivity interaction (ActivX KiNativ screen (kinase selectivity in THP-1 cell lysates)) EUB0000639a RPS6KB1. It is filed as subcellular. The settings on record: lysate, at 0.04 µM.
Sequence of Ribosomal protein S6 kinase beta-1 (P23443 whole entry, looked up): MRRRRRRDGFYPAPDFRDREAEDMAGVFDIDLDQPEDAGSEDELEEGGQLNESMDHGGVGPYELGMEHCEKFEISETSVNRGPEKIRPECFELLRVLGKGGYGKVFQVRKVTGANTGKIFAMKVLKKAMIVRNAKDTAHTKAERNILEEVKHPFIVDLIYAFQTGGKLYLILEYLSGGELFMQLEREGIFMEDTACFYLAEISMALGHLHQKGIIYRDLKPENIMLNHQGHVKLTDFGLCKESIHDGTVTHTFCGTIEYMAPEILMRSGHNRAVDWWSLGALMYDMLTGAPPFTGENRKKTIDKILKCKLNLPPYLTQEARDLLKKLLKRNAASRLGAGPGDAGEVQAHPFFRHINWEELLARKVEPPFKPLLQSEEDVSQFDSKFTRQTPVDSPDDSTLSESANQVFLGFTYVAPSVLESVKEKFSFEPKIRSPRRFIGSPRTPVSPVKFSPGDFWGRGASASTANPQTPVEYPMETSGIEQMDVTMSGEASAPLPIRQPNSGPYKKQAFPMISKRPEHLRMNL
The target of test [6] is T2, Serine/threonine-protein kinase Nek2 (Homo sapiens) (UniProt P51955).
T2 sequence (whole entry): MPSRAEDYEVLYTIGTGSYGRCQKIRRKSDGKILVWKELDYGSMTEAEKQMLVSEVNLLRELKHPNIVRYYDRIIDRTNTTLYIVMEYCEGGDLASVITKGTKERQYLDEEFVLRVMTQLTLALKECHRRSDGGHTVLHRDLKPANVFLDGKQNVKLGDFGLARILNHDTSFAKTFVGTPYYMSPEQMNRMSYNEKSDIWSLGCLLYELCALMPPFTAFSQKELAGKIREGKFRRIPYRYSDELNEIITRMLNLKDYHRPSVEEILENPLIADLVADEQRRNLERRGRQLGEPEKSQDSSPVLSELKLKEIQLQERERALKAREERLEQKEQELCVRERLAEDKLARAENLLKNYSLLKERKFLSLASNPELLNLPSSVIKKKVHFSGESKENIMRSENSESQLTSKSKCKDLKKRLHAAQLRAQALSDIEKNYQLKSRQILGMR
In words: Selectivity interaction (Kinase panel (literature)) EUB0001199aCl NEK2. The settings on record: at 1 µM.

Test [7] concerns the target Serine/threonine-protein kinase MARK2 (Homo sapiens) (UniProt Q7KZI7). In words: Selectivity interaction (ProQinase) EUB0000171b MARK2.
Test [8] has as its target Protein-tyrosine kinase 6 (Homo sapiens, UniProt Q13882).
The target of test [9] is T3, MAP/microtubule affinity-regulating kinase 4 (Homo sapiens) (UniProt Q96L34).
T3 sequence (whole entry): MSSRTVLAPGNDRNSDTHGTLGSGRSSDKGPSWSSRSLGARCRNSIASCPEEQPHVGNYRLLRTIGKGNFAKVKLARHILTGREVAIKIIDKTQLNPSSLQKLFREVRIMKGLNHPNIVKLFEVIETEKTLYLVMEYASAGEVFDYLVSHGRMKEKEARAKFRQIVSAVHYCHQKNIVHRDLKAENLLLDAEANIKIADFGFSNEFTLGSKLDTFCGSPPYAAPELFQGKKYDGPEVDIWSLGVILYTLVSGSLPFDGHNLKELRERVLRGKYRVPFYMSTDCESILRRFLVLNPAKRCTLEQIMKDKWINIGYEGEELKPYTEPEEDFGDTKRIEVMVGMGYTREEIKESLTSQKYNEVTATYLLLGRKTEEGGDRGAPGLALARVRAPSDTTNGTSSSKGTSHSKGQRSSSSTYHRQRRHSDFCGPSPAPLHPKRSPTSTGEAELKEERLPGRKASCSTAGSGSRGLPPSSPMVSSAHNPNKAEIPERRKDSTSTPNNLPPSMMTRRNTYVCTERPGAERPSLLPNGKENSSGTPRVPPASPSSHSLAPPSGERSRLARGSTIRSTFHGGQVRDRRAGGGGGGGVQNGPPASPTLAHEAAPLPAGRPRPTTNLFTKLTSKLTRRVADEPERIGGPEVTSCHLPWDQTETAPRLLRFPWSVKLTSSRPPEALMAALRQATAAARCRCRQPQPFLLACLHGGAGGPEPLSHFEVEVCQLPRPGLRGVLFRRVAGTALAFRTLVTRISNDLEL
In words: Selectivity interaction (KinomeScan (DiscoverX)) EUB0001049a MARK4. The settings on record: at 1 µM.

Test [10] addresses Mitogen-activated protein kinase 1 (Homo sapiens, UniProt P28482). Put plainly: Selectivity interaction (KinomeScan (DiscoverX)) EUB0000655a MAPK1. The settings on record: at 10 µM.
In test [11] the target is Mitogen-activated protein kinase kinase kinase 20 (Homo sapiens) (UniProt Q9NYL2). In words: Selectivity interaction (KinomeScan (DiscoverX)) EUB0000092b MAP3K20. Conditions: at 10 µM.
Test [12] concerns the target Ribosomal protein S6 kinase alpha-6 (Homo sapiens, UniProt Q9UK32). In words: Selectivity interaction (KinomeScan (DiscoverX)) EUB0000092b RPS6KA6. Conditions: at 10 µM.
Test [13] concerns the target Cyclin-dependent kinase 4 (Homo sapiens, UniProt P11802). In words: Selectivity interaction (KinomeScan (DiscoverX)) EUB0001079a CDK4. Conditions: at 1 µM.
For test [14], the target named is Dual specificity mitogen-activated protein kinase kinase 2 (Homo sapiens) (UniProt P36507). In words: Selectivity interaction (KinomeScan (DiscoverX)) EUB0001079a MAP2K2. Conditions: at 1 µM.
Sequence of Dual specificity mitogen-activated protein kinase kinase 2 (Homo sapiens) (P36507 whole entry): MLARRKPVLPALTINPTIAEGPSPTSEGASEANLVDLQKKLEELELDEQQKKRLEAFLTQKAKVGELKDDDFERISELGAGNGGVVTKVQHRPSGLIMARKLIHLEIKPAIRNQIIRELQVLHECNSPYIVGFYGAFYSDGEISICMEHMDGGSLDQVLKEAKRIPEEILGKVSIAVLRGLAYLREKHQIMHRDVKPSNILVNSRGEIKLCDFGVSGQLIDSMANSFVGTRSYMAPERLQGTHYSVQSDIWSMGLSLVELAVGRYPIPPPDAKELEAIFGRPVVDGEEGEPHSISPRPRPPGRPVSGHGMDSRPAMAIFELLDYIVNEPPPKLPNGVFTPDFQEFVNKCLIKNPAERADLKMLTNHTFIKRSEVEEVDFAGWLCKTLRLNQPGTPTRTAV
Test [15] concerns the target RAC-gamma serine/threonine-protein kinase (Homo sapiens, UniProt Q9Y243). Put plainly: Selectivity interaction (Millipore kinase profiler) EUB0000124b AKT3. Conditions: at 10 µM.
The target in test [16] is Mitogen-activated protein kinase 10 (Homo sapiens, UniProt P53779). Put plainly: Selectivity interaction (KinomeScan (DiscoverX)) EUB0000229b MAPK10. Conditions: at 10 µM.
For test [17], the target named is Receptor-interacting serine/threonine-protein kinase 3 (Homo sapiens) (UniProt Q9Y572). Put plainly: Selectivity interaction (Kinase panel (KiNativ target engagement assay in Jurkat cells)) EUB0001635a RIPK3. Conditions: Selectivity number of off-targets 0.0, Selectivity number of targets 233.0, Source Knowledge https://www.sciencedirect.com/science/article/pii/S2451945619300674?via%3Dihub, at 1 µM. The format is cell-based.

Some results are limits rather than exact numbers.

Sequence of Serine/threonine-protein kinase MARK2 (Homo sapiens) (Q7KZI7 whole entry): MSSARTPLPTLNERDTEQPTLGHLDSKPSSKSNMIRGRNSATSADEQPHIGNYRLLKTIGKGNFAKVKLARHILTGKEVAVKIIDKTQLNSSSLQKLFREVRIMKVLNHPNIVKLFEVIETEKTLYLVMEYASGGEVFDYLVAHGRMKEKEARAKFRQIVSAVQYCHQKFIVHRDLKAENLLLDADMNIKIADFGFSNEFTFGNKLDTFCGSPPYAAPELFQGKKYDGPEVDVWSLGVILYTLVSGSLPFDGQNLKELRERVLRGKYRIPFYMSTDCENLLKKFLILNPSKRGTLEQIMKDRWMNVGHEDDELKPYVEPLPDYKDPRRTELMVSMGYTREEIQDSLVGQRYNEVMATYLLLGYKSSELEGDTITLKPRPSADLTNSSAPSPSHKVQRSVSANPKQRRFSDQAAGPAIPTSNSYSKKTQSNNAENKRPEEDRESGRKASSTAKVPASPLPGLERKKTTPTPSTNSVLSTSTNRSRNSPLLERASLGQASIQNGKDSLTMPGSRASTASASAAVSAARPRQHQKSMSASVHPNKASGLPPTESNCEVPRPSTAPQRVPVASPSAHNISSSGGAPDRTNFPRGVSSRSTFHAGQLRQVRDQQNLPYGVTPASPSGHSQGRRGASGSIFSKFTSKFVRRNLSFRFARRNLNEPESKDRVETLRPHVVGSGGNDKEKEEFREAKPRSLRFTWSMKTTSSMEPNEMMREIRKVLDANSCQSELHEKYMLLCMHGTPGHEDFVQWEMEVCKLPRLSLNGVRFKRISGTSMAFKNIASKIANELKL
Sequence of Mitogen-activated protein kinase 7 (Homo sapiens) (Q13164 2-816 limits assumed): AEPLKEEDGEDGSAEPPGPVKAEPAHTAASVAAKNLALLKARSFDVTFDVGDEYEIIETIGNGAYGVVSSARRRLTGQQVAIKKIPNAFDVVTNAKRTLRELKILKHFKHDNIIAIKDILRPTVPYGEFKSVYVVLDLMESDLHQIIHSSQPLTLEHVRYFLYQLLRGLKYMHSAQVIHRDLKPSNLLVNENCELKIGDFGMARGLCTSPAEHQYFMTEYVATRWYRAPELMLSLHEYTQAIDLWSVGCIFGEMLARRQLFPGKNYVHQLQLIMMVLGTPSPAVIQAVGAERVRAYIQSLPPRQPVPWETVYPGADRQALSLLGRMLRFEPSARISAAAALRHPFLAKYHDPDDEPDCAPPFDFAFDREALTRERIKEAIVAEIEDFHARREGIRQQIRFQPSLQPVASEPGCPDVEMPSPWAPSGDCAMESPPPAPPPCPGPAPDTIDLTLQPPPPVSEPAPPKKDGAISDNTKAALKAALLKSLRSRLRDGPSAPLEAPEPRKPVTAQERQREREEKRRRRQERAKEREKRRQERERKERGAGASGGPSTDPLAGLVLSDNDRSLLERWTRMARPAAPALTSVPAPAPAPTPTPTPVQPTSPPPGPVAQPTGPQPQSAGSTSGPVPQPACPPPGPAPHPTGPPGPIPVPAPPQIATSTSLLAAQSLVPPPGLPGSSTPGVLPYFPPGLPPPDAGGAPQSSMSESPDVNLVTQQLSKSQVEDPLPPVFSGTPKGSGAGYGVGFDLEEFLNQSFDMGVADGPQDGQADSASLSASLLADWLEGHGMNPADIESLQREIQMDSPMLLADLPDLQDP
Sequence of RAC-gamma serine/threonine-protein kinase (Q9Y243 whole entry): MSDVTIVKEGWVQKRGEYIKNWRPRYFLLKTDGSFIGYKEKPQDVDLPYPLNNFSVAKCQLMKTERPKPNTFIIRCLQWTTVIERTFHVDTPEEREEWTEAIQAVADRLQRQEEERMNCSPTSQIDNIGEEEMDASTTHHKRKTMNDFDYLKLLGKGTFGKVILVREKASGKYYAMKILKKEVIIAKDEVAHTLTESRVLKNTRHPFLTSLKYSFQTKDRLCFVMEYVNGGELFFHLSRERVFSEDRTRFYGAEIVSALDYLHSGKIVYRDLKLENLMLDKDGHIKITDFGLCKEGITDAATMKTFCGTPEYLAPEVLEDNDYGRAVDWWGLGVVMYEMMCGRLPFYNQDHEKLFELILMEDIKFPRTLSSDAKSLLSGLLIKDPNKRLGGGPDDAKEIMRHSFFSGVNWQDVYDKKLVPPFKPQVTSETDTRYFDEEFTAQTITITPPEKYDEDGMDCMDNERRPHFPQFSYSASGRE
Sequence of Mitogen-activated protein kinase kinase kinase kinase 1 (Homo sapiens) (Q92918 whole entry, looked up): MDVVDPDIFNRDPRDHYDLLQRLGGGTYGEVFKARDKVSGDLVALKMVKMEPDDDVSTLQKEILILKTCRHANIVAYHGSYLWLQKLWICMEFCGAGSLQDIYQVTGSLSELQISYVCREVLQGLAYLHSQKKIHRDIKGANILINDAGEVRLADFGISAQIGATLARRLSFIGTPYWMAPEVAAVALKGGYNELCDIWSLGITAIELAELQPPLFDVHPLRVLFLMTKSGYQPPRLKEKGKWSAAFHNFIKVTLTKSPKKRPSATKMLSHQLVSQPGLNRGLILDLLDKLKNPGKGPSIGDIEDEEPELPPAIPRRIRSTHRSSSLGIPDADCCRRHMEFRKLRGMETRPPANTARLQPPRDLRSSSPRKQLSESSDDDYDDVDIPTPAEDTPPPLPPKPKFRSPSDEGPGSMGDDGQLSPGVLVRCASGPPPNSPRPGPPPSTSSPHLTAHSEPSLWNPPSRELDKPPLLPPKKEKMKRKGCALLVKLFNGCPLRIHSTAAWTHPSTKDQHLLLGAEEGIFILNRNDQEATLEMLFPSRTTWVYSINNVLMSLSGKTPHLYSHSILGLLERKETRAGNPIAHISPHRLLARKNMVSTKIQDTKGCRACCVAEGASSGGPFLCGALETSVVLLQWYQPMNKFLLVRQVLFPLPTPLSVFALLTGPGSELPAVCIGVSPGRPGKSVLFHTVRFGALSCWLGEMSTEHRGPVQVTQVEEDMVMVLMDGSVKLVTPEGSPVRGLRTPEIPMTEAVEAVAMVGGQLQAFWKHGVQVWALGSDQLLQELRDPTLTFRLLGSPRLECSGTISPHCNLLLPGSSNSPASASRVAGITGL
Sequence of Mitogen-activated protein kinase 1 (P28482 whole entry): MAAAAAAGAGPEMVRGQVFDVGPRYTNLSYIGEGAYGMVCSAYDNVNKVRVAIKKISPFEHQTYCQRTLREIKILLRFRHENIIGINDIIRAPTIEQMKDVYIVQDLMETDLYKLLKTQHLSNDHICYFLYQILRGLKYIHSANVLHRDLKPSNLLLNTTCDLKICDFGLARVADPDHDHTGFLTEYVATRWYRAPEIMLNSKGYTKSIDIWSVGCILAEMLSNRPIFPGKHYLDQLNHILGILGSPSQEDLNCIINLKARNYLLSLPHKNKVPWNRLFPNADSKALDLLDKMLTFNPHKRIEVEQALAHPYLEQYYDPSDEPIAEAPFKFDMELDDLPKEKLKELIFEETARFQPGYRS
Sequence of Ribosomal protein S6 kinase alpha-6 (Q9UK32 whole entry): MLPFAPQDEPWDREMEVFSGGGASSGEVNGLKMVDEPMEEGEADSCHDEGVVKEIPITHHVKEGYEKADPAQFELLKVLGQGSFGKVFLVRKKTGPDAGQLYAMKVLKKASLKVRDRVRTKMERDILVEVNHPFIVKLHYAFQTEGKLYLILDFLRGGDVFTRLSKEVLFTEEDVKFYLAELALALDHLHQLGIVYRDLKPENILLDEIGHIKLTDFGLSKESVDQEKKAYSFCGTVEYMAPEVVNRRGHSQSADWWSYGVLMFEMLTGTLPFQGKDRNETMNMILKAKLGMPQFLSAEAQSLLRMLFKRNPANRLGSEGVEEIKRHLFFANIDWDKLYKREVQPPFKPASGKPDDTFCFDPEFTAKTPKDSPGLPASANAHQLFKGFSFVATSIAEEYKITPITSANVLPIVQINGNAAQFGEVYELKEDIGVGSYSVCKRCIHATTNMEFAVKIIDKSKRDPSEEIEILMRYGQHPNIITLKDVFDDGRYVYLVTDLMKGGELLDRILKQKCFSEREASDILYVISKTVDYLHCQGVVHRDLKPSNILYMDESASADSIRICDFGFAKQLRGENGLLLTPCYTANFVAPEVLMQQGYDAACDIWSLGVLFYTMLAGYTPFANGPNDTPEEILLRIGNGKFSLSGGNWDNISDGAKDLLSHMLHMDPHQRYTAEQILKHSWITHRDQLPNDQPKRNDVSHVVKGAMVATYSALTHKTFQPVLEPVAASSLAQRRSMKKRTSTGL

With `COCC(=O)NC/C=C/c1ccc2ncnc(Nc3ccc(Oc4ccc(C)nc4)c(C)c3)c2c1` [CP-724714], the % of control in test [1] was 92%.

Take `N#Cc1cccc(-c2c[nH]c3ncnc(N4CCOCC4)c23)c1`: the % of inhibition in test [2] is -6%.

For the compound `CC(=O)c1cc(-c2ccccc2OCC2CC2)c2ncccn12`, the % of control in test [3] amounted to 115%.

Consider `CNC(=O)Nc1ccc(-c2nc(N3CC4CCC(C3)O4)c3cnn(C4CCC5(CC4)OCCO5)c3n2)cc1`, for which the % of control in test [4] was found to be 94%.

Consider `CC[C@@H]1[C@H](F)C(=O)N[C@@H]1COc1nccc2cc(C(N)=O)c(OC)cc12` [ZIMLOVISERTIB], for which, in [5], the % of inhibition is 9.9%.

Consider `CN1Cc2nccc(-c3cn(C)nc3-c3ccc(F)cc3)c2C1=O`, for which the % of inhibition in test [6] was 4%.

With `C=CC(=O)Nc1cccc(C(=O)Nc2ccc(Nc3cc(-c4[nH]c(SC)nc4C)ccn3)cc2)c1`, the % of control in test [7] (at 1 µM) is 93%; in test [7] (at 5 µM) it was 84%.

One may read the IC50 as the midpoint of a concentration-inhibition curve. High values mean a need for much substance, low ones inhibition by little substance. `CCc1cccc(CC)c1NC(=O)c1nn(C)c2c1CCc1cnc(Nc3ccc(C(=O)NC4CCN(C)CC4)cc3OC(F)(F)F)nc1-2`: the half-inhibitory concentration (IC50) in test [8] was over 10 µM.

On to `COc1cc(Nc2nc(C)cc(-c3cnn4nc(OC)ccc34)n2)cc(C(F)(F)F)c1`, for which, in test [9], the % of control is 100%.

`CN(C)CCOc1ccc(-c2nc(-c3ccncc3)c(-c3ccc4c(c3)CC/C4=N\O)[nH]2)cc1` displayed a % of control in [10] of 100%.

Regarding `CCC(=O)N1CCN(c2ccc(-n3c(=O)ccc4cnc5ccc(-c6cnc7ccccc7c6)cc5c43)cc2C(F)(F)F)CC1`, the % of control in test [11] is 22%; in [12], 66%.

Turning to `Nc1cnc(N2CCc3cc(S(=O)(=O)Nc4c(F)cc(Cl)cc4F)cc(N4CCCC4=O)c32)nc1` [TP-020n], the % of control in test [13] came out at 97%; in test [14], 92%.

As for `CC(=O)Nc1cccc(-n2c(=O)n(C3CC3)c(=O)c3c(Nc4ccc(I)cc4F)n(C)c(=O)c(C)c32)c1`, the % of control in [15] came out at 109%.

In [16], `COc1cc(N(C)c2ccnc3ccc(C(F)(F)F)cc23)cc(OC)c1OC` gave a % binding of 88%.

For the compound `C=CC(=O)Nc1ccc(C(=O)Nc2[nH]nc3c2CN(C(=O)N[C@H](CN(C)C)c2ccccc2)C3(C)C)cc1`, the % of engagement in test [17] is -0.8%.
